Assay results published in ChEMBL document CHEMBL4418318, “Dynamin-1-like protein inhibitors” (2018).

Target: Dynamin-1-like protein (Homo sapiens, UniProt O00429)
Assay: Inhibition of DRP1 (unknown origin) using GTP as substrate incubated for 20 mins by malachite green reagent based colorimetric assay

Dynamin-1-like protein, sequence (O00429 whole entry): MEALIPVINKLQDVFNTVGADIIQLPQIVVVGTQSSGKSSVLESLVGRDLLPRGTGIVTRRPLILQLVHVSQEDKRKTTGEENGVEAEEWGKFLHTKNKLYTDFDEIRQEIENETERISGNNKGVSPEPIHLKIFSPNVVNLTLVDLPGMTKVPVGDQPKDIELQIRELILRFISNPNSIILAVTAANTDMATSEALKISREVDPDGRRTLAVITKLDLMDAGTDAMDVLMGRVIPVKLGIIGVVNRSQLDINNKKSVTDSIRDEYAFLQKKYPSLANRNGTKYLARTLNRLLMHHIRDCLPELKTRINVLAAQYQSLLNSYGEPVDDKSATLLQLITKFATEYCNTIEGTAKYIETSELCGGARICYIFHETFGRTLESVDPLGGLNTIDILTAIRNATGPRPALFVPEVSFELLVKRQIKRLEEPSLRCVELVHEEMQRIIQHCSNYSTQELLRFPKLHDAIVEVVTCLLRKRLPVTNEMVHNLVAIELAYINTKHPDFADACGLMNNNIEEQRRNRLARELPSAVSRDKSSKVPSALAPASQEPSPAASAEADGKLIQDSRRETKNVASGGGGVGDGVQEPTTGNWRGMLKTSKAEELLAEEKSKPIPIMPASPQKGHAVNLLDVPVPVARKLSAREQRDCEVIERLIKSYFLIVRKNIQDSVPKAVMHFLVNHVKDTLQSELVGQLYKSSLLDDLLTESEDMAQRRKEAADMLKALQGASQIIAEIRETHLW

IC50: > 100 µM
Compound: O=C(O)c1ccc(NC(=O)c2cc(Br)cn2Cc2csc(N3CCCCC3)n2)cc1
